Like-named read-outs stand apart in the source and are kept apart here. Bridges are numbered along the chain shown (N, C = ends). Where no end group is shown, it is not given here.
Key:
NIH 3T3 cells [1] = test: Cytotoxicity by staining with fluorescein diacetate/ethidium bromide; type: cell-based; conditions: 0 to 46 μM
Procedure: (§1) Bars represent the mean±S.E.M. of at least three independent experiments done in triplicate and calculated as multiplicity of counts in the tested sample over the control sample. SA peptide within the concentration range used (0 to 46 μM) was not cytotoxic as determined by staining with fluorescein diacetate/ethidium bromide. ^20

NIH 3T3 cells [2] = test: [3H]thymidine incorporation (mitogenic response) of NIH 3T3 cells; type: cell-based; conditions: comparable concentration ranges
Procedure: A 26-residue hybrid peptide (referred to as SA, listed herein as SEQ ID NO:3) was designed and synthesized. […] Thus, the SA peptide differs from the SM peptide only in its 7-residue carboxyl terminal “cargo” region. A functional assay was performed in which SA peptide was able to induce a mitogenic response of NIH 3T3 cells measured by [^3H]thymidine incorporation in a manner similar to aFGF bearing, the same NLS. ^18
In this functional assay, confluent 3T3 cells grown initially in DMEM containing 10% FBS were transferred to a low serum medium (DMEM containing 0.5% FBS) for 2 days. The test peptides, either SA peptide, SAα pep-tide, ANL peptide, or SM peptide, or aFGF, were added to a fresh low serum medium at the indicated concentrations at 37° C. After 16 hours, [^3H]thymidine was added and 4 hours later, the cells were washed with PBS, treated with trichloroacetic acid, solubilized with 0.15 M NaOH, and the radioactivity was determined in a liquid scintillation counter.
as §1

NIH 3T3 cells [3] = test: Indirect immunofluorescence assay of peptide import into NIH 3T3 cells; type: cell-based
From the text: A 26-residue peptide (referred to as SM, listed herein as SEQ ID NO:1) that contained the predicted signal sequence of Kaposi fibroblast growth factor ^16-17 (K-FGF) was chemically synthesized. An indirect immunofluorescence assay using antibody against epitope tag-containing SM peptide was employed to follow translocation of the SM peptide to the intracellular compartments of NIH 3T3 cells. A polyclonal anti-SM peptide antibody against the SM peptide-keyhole limpet haemocyanin conjugate (Pierce) was raised in rabbits and reacted with SM peptide in ELISA (titer>1:30,000). The intracellular SM peptide was detected by an indirect imrnmunofluorescence assay using affinity-purified anti-SM peptide IgG and rhodamine-labeled anti-rabbit antibody (Kirkegaard & Perry). Briefly, confluent NIH 373 cells on the chamber slides (Nunc) were treated with either 0.5 ml SM peptide solution (100 μg ml^−1) in DMEM containing 10% FBS or with 0.5 ml DMEM containing 10% FBS only for 30 minutes at 37° C. The cells were fixed with 3.5% paraformaldehyde solution in PBS followed by 0.25% Triton X-100 in PBS and then treated with 1:20 anti-SM peptide IgG in PBS containing 0.5% bovine serum albumin (BSA) for 1.5 h. The intracellular SM peptide-antibody complexes were visualized by subsequent incubation with a rhodamine-labeled anti-rabbit polyclonal antibody for 1 h. In control systems, anti-SM peptide antibody was preabsorbed with the SM peptide. Intracellular localization of the SAα peptide was detected by immunofluorescence assay using affinity-purified anti-SM peptide IgG as described above for SM peptide. […] A ten-step z-position sectional scanning of the SM peptide-treated cells by the confocal laser scanning microscopy (CLSM) affirmed that these deposits were intracellular. […] Likewise, cells not exposed to SM peptide or cells exposed to SM peptide followed by the secondary antibody alone were negative. If cells were fixed with paraformaldehyde before peptide treatment, the cellular import of SM peptide was prevented.
To determine the rate of SM peptide import across cell membranes, a kinetic experiment was carried out with the SM peptide-treated NIH 3T3 cells. NIH 3T3 cells were treated at 37° C. with 0.5 ml SM peptide at 100 μg mL^−1 in DMEM containing 10% FBS for 1, 5, 15, 30, 60 and 120 minutes. Intracellular SM peptide deposits were detected by indirect immunofluorescence assay as described above. […] The 30-minute time point was therefore selected to determine the optimal peptide concentrations for detectable import.
To determine the optimal peptide concentration, NIH 3T3 cells were treated for 30 minutes at 37° C. with 0.5 ml SM peptide solution in DMEM containing 10% FBS at the following concentrations: 0, 2, 10, 50, 100, and 150 μg ml^−1. Intracellular localization of the SM peptide was detected by indirect immunofluorescence assay as described above. […] The cellular import was concentration-dependent and reached a plateau between 50 μg/ml and 100 μg/ml.
Transport of the SM peptide across the cell membrane was temperature-dependent. […] Accordingly, cellular import of the SM peptide resumed when the incubation temperature shifted from 4° C. to 37° C.
The intracellular SA peptide could not be tracked by an immunofluorescence assay because it was not recognized by the available anti-SM peptide antibody. However, attaching two extra amino acid residues (Met-Pro) to the carboxyl terminus of the SA peptide produced a modified SA peptide (referred to as SAα, listed herein as SEQ ID NO:4) that contained a 3-amino acid epitope tag, Leu-Met-Pro, recognized by anti-SM peptide antibody in ELISA. […] Like SA peptide, SAα peptide was mitogenic in the thymidine incorporation assay.

NIH 3T3 cells [4] = test: Import of 125I-labeled peptide into NIH 3T3 cells (cell-associated radioactivity; ATP depletion, protease treatment); type: cell-based; conditions: for Counts in cells: 15 ng, 30 min; for Counts in cell lysates / Counts in supernatants: 5 min
From the text: Intracellular localization of the membrane-permeable peptide was also shown by treatment of cells with proteases following peptide import. For this experiment, 41-residue peptide (referred to as SEP and listed herein as SEQ ID NO:6) that contained the same hydrophobic sequence as SM peptide followed by the sequence of K-FGF(129-153) was designed and synthesized. The latter was present in KP peptide not containing hydrophobic sequence that served as the control for the membrane-permeable SKP peptide. […] The intracellular ^125I-SKP peptide was resistant to the action of proteases.
Both SKP and KP peptides were radiolabeled with ^125I by the lodogen method (Pierce). The specific activities of both peptides were similar (2.5×10^4 cpm/ng). NIH 3T3 cells were subcultured on a 60-mm dish and incubated at 37° C. for 3 days. The confluent monolayers (1.6×10^6 cells) on each dish were then washed twice with PBS and treated with 15 ng of ^125I-SKP or ^125I-KP peptide at 37° C., for the indicated time. The cells were washed eight times with PBS and twice with 2 M NaCl buffer (pH 7.5) until no radioactivity could be detected in the washings. The washed cells were lysed in lysis buffer (10 mM Tris-HCl, pH 7.0, 0.1 mM EDTA, 1 mM phenylmethylsulphony fluoride, 1 mM dithiothreitol, and 1% Triton X-100) and the radioactivity in the cell lysates was counted in a Packard auto-gamma counter. In some experiments, the washed cells were further treated with pronase (1 mg/ml) or trypsin (0.05%) solution in DMEM for 5 min at 37° C. The supernatants and cells were separated and their radioactivities were counted separately. For ATP depletion assay, cells were incubated with 5 μglml antimycin, 6.5 mM 2-deoxyglucose, and 10 mM glucono-δ-lactone in DMEM for 2 h at 37° C. before addition of ^125I-SKP peptide. The levels of ATP in ATP-depleted cells and normal cells were determined by ATP bioluminescent assay kit (Sigma).
For ATP depletion assay, confluent NIH 3T3 cells (1.6×10^6 cells) in each dish were treated with or without ATP depleting reagents (antimycin, 2deoxyglucose, and glucono-δ-lactone) for 2 h at 37° C. Cells were then treated with 15 ng of ^125I-SKP peptide for 30 min at 37° C. After complete removal of extracellular^125I-labeled peptides, the radioactivity in the cell lysates was counted. For the assay using proteases, cells were treated with ^125 I-SKP peptide and washed as described above. The ^125I-SKF peptide-associated cells were then treated with pronase (1 mg/ml), trypsin (0.05%), or diluent for 5 min at 37° C. The radio-activities in the cell lysates and supernatants were counted separately. Data in Table 1 represent the mean the mean ±SEM of triplicate determinations of a single experiment. The experiment was repeated three times with similar results.

[5] = tested on: rodent endothelial cell line (LE-II); test: Indirect immunofluorescence assay of peptide import, LE-II cells; type: cell-based
[6] = tested on: human umbilical vein endothelial cells; test: Indirect immunofluorescence assay of SM peptide import, HUVEC; type: cell-based
[7] = tested on: baby hamster kidney-21 cells; test: Indirect immunofluorescence assay of SM peptide import, baby hamster kidney-21 cells; type: cell-based
NF-κB complex = conditions: for Inducible nuclear import of NF-κB, LPS / Inducible nuclear import of NF-κB, TNFα: LEII
NF-κB [8] = type: cell-based, murine; conditions: J774, LPS 10 ng/ml, peptide 31 μM (Example II)
rabbits = test: Localized Shwartzman reaction (LPS-induced skin inflammatory reaction) in rabbits; type: in vivo, rabbit; conditions: intradermal application prior to the second LPS injection
NF-κB [9] = type: cell-based

AAVALLPAVLLALLAPAAANYKKPKL [SA peptide] was tested, and the Cytotoxicity (NIH 3T3 cells [1]) was “not cytotoxic”.
“Asn-Tyr-Lys-Lys-Pro-Lys-Leu (NYKKPKL) (1..7 Note/label = a (“Nuclear localization sequence of aFGF”)) [ANL peptide, 7-residue peptide representing the NLS of aFGF, reference compound]” was tested, and the “Mitogenic activity in thymidine incorporation assay” value (from here on “Mitogenic activity”) (NIH 3T3 cells [2]) was “Neither control peptide showed any significant mitogenic activity”.
For “SAα peptide: SA peptide with two extra residues (Met-Pro) at the carboxyl terminus (AAVALLPAVLLALLAPAAANYKKPKLMP; 1..16 Note/label = a (“Signal peptide amino acid sequence of K-FGF”))”, the “Intracellular peptide staining with anti-SM peptide antibody” value (NIH 3T3 cells [3]; SAα-treated NIH 3T3 cells) was “punctate staining pattern” and the “Mitogenic activity” value (NIH 3T3 cells [2]) was “mitogenic”.
With “SKP peptide: 41-residue peptide: same hydrophobic sequence as SM peptide followed by K-FGF(129-153); tested 125I-radiolabeled (AAVALLPAVLLALLAPEILLPNNYNAYESYKYPGMFIALSK; also: 125I radiolabel, site not given here)” the “Radioactivity detected in peptide-treated cells” value (NIH 3T3 cells [4]; 15 ng 125I-peptide, 37° C.) was “Substantial radioactivity was detected”, the Counts in cells (NIH 3T3 cells [4]; ATP-depleted cells, 37° C.) was 22,266 ± 3,602 cpm/1.6 × −10′ cells and the “Counts in cell lysates” value (NIH 3T3 cells [4]; no protease (diluent), 37° C.) was 21,323 ± 853. The Counts in supernatants (NIH 3T3 cells [4]; no protease (diluent), 37° C.) was 2,966 ± 838, the “Counts in cell lysates” value (NIH 3T3 cells [4]; pronase 1 mg/ml, 37° C.) was 21,791 ± 1,953 and the Counts in supernatants (NIH 3T3 cells [4]; pronase 1 mg/ml, 37° C.) was 1,979 ± 75. For the same substance, the “Loss of cell-associated radioactivity after protease treatment” value (NIH 3T3 cells [4]; pronase or trypsin) was “no significant loss of cell-associated radioactivity was observed”, the Counts in supernatants (NIH 3T3 cells [4]; trypsin 0.05%, 37° C.) was 655 ± 70 and the Counts in cells (NIH 3T3 cells [4]; untreated (ATP-positive) cells, 37° C.) was 20,189 ± 2,109 cpm/1.6 × −10′ cells.
With “SM peptide: 26-residue peptide: K-FGF signal sequence, spacer, epitope tag; mutated, loss-of-function NLS; cell-permeable control (AAVALLPAVLLALLAPAAADQNQLMP; 1..16 Note/label = a (“Signal peptide amino acid sequence of K-FGF”))” the “Intracellular localization by indirect immunofluorescence” value (“Intracellular localization” for short) [5] was “the same results as with NIH 3T3 cells”, the “Intracellular localization” value [6] was “the same results as with NIH 3T3 cells” and the “Intracellular localization” value [7] was “the same results as with NIH 3T3 cells”. The “Time at which intracellular staining plateaued” value (NIH 3T3 cells [3]; 100 μg/mL, 37° C.) was “about 30 minutes”, the “Time at which intracellular staining was first observed” value (NIH 3T3 cells [3]; 100 μg/mL, 37° C.) was no more than 5 min and the “Immunofluorescence staining at 4° C.” value (NIH 3T3 cells [3]; 100 μg/ml, 30 minutes, 4° C.) was “No immunofluorescence staining was observed”. For the same substance, the “Immunofluorescence staining at 22° C. or 37° C.” value (NIH 3T3 cells [3]; 100 μg/ml, 30 minutes, 22° C. or 37° C.) was “numerous punctate deposits”, the “Intracellular peptide deposits by indirect immunofluorescence” value (NIH 3T3 cells [3]; 100 μg/ml, 30 minutes, 37° C.) was “intracellular deposits were observed in almost all cells” and the “Concentration giving detectable intracellular peptide” value (NIH 3T3 cells [3]; 30 minutes, 37° C.) was 2 µg/mL. For the same substance, the “Concentration giving detectable intracellular peptide (molar)” value (NIH 3T3 cells [3]; 30 minutes, 37° C.) was “about 800 nM”, the “Cellular import in cells fixed with paraformaldehyde before peptide treatment” value (NIH 3T3 cells [3]; cells fixed before treatment) was “prevented” and the “Mitogenic activity” value (NIH 3T3 cells [2]) was “Neither control peptide showed any significant mitogenic activity”.
For “SN50 peptide: 26-residue peptide: K-FGF signal sequence (residues 1-16) and NLS of NF-kB p50 subunit (residues 17-26) (AAVALLPAVLLALLAPVNRKRNKLMP)”, the “Intracellular distribution compared to intracellular SM peptide” value [5] was “more nuclear staining pattern”, the “Inducible nuclear import of NF-κB, LPS” value (NF-κB complex; LPS 10 ng/ml (Example II)) was “inhibited” and the “Inducible nuclear import of NF-κB, LPS” value (NF-κB complex; LPS 10 ng/ml (Example III)) was “inhibited”. The “Inducible nuclear import of NF-κB, TNFα” value (NF-κB complex; TNFα 20 U/ml (Example III)) was “inhibited”, the “Inducible nuclear import of NF-κB, TNFα” value (NF-κB complex; TNFα 100 U/ml (Example II)) was “inhibited” and the “Nuclear import of NF-κB induced by LPS” value (NF-κB [8]) was “blocked”. The “Localized skin inflammatory reaction (Evans' Blue area)” value (rabbits) was “greatly diminished area of blue discoloration”.
“cSN50 peptide: cyclic peptide designed by inserting two cysteines flanking the NLS motif of SN50 (AAVALALLPAVLLALLAPCYVQRKRQKLMPC; disulfide 19-31 (inferred))” was tested, and the “Potency relative to the prototypical SN50 peptide (phosphoimager analysis)” value (NF-κB complex; cSN50 versus SN50) was 3-10 times and the “SEB-induced NF-κB nuclear import” value (NF-κB [9]) was “increasing inhibition of SEB-induced NF-κB nuclear import”.

Reference: patent US7553929B2, “Cell permeable peptides for inhibition of inflammatory reactions and methods of use” (Vanderbilt University, priority 1994, dated 2009)
